Experiments:
heart failure patients = settings: unselected heart failure patients; CORONA and GISSI-HF trials; cited from earlier work
[1] = system: patients with chronic heart failure (HF); assay: Clinical trial of rosuvastatin vs placebo in chronic heart failure, analysed by baseline galectin-3 category; assay type: in vivo, human
From the text: A clinical trial enrolled patients with chronic heart failure (HF) (New York Heart Association functional class II, III or IV) and with left ventricular ejection fraction less than or equal to 40% (less than or equal to 35% for patients in New York Heart Association functional class II). The design and primary results of the trial are reported in published literature [J. Kjekshus et al., “Rosuvastatin in Older Patients with Systolic Heart Failure.” N Engl J. Med. 2007 Nov. 29; 357(22):2248-61]. Patients were randomly assigned to receive 10 milligrams of rosuvastatin or placebo per day. Of the patients in the trial, a subset of 1,462 subjects also participated in a sub-study in which blood was collected at baseline, defined as the time of enrollment in the trial. Baseline galectin-3 levels were evaluated in these […] subjects.
Blood plasma samples were drawn at baseline from participants in a non-fasting state. All samples were stored at −80° C. Plasma galectin-3 levels were determined on these plasma specimens using a commercial enzyme-linked immunosorbent assay (BGM Galectin-3 Assay; BG Medicine, Waltham, Mass.) according to the manufacturer's instructions.
Determination of galectin-3 concentration in serum samples was assessed using ELISA kits (BGM Galectin-3 Assay; BG Medicine Inc., Waltham, Mass., USA). The assay sensitivity (lowest concentration different from zero) was 0.96 ng/mL. Intra- and inter-assay variations were less than 8% and 10% respectively.
For the main objective of investigating the effects of rosuvastatin treatment according to baseline galectin-3 level, galectin-3 categories were defined based on the median baseline value across all 1,462 subjects for whom a galectin-3 measurement was available. For each of six endpoints, a formal interaction test was conducted within a Cox proportional hazards model comprising treatment group (binary variable), galectin-3 category (dichotomous variable), and the interaction term. Subsequently, Cox proportional hazards models were used to estimate the hazard ratios (HRs) and 95% confidence intervals (CIs) comparing rosuvastatin and placebo treatments by galectin-3 categories. Fully adjusted models included the following 11 covariates, all evaluated at baseline: age (per year), gender, LVEF (per unit), NYHA class (due to the small number of subjects with class IV, class III and IV were combined), body mass index (BMI) (per unit), diabetes mellitus (yes/no), intermittent claudication (yes/no), heart rate (per unit), estimated glomerular filtration rate (eGFR) (per unit), the ratio of apolipoprotein B to apolipoprotein A1, and N-terminal B-type natriuretic peptide (NT-proBNP) (the variable NT-proBNP was logarithmically transformed using base e). Incident event rates were analyzed using Poisson regression. Baseline characteristics were compared by galectin-3 category using Student's t-test for variables expressed as means and standard deviation. All P-values are two two-tailed. All analyses were performed with SAS software, version 9.1 (SAS Institute), or R software, version 2.

CC(C)c1nc(N(C)S(C)(=O)=O)nc(-c2ccc(F)cc2)c1/C=C/[C@@H](O)C[C@@H](O)CC(=O)O [Rosuvastatin, rosuvastatin]
clinical benefit of statin therapy in heart failure patients (heart failure patients): did not demonstrate a significant clinical benefit | Rate of subjects experiencing the primary outcome, Rosuvastatin rate ([1]; Galectin-3 > 19.0 ng/mL, 728 subjects): 15.1 per 100 person-years of follow-up | Rate of subjects experiencing the primary outcome, Rosuvastatin rate ([1]; Galectin-3 ≦ 19.0 ng/mL, 734 subjects): 7.8 per 100 person-years of follow-up | hazard ratio (HR) for the primary endpoint, rosuvastatin compared to placebo ([1]; baseline galectin-3 >19.0 ng/mL (N=728), 10 mg rosuvastatin per day, adjusted HR): 1.07 | rate of primary events ([1]; baseline galectin-3 >19.0 ng/mL, rosuvastatin group, 10 mg per day): 15.1 events per 100 patient-years | hazard ratio (HR) for the primary endpoint (earlier of cardiovascular death, non-fatal myocardial infarction or non-fatal stroke), rosuvastatin compared to placebo ([1]; baseline galectin-3 less than or equal to 19.0 ng/mL (N=734), 10 mg rosuvastatin per day, adjusted for 11 clinical and biochemical covariates): 0.65 | difference in rate of primary events, rosuvastatin compared to placebo ([1]; baseline galectin-3 less than or equal to 19.0 ng/mL, 7.8 vs 11.2 events per 100 patient-years): 30.4% | rate of primary events ([1]; baseline galectin-3 less than or equal to 19.0 ng/mL, subjects randomized to rosuvastatin 10 mg per day): 7.8 events per 100 patient-years

Reference: patent US20120029003A1, “GALECTIN-3 AND STATIN THERAPY” (BG Medicine, Inc., priority 2010, published 2012)
